For `O=C1CCCCC1Sc1ncccn1` (stereo not shown) [Compound 03-43, 2-(Pyrimidin-2-ylsulfanyl)-cyclohexanone], the melting point was 51 °C.

From US20080221109A1, “PESTICIDAL SUBSTITUTED THIOETHERS” (priority 2005, published 2008)
